Results as given in PMC8877008, “Synthesis and Structure–Activity Relationship Studies of Benzimidazole-4,7-dione-Based P2X3 Receptor Antagonists as Novel Anti-Nociceptive Agents” (Molecules, 2022).

Columns and labels:
[1] = Metabolic stability in microsomal fraction, human; type: in vitro ADME; details: Table 1
[2] = Metabolic stability in microsomal fraction, mouse; type: in vitro ADME; details: mouse; Table 1
[3] = Metabolic stability in microsomal fraction, rat; type: in vitro ADME; details: Table 1
hP2X3R = biological target: T1, hP2X3R (Homo sapiens, UniProt P56373); test: Calcium influx (Fluo-4) evoked by α,β-meATP in HEK293 cells stably expressing hP2X3R; type: cell-based; details: for IC50: antagonistic activity, HEK293 cells expressing hP2X3R, agonist at EC70; for Decrease of P2X3R antagonistic activity compared with KCB-77033: relative to hit compound KCB-77033
T1 construct: expressed in transfected cells
T1 sequence (P56373 1-397): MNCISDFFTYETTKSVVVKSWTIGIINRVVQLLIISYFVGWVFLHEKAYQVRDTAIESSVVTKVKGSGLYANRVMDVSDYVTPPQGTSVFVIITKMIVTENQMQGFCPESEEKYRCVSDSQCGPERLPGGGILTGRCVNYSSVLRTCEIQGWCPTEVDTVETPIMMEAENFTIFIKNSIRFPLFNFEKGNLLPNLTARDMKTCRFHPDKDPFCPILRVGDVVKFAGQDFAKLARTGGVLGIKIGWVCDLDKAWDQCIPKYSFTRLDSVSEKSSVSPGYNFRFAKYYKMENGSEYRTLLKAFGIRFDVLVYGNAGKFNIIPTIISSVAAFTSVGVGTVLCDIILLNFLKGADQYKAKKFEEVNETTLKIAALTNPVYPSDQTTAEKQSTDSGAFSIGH
Description: For the evaluation of P2XR activities, a cell-based assay system was employed to measure the level of fluorescence emission, based on Fluo-4 dye, during Ca^2+ influx evoked by αβmeATP in HEK293 cells stably expressing hP2X2/3R and hP2X3R. The library containing 8364 representative compounds for the screening of antagonistic activity was provided by the Korea Chemical Bank. The antagonistic activities were evaluated in the presence of P2X3R agonist of the concentration for EC70 value (200–250 nM for hP2X3R and 1–4 μM for hP2X2/3R highly expressed cell lines), and AF353 was used as the positive control antagonist for comparison. For the first round of screening, a single concentration (25 μM) of each library compound was tested to identify initial hit compounds, which were subsequently validated using both concentrations of 25 and 10 μM. Using a cut-off threshold of higher than 50% antagonistic activity and after confirming dose-dependency, 12 main hit compounds were selected.
3.4. Cell-Based Assay: Measurement of Calcium Influx by Fluorescence-Based Fluo-4 Dye Uptake in HEK293 Cells Expressing hP2X2/3 and hP2X3 Receptors
Human P2X3-expressing HEK293 cells were grown in DMEM supplemented with 10% fetal bovine serum and 1% antibiotic–antimycotic as a monolayer culture at 37 °C in a humidified atmosphere of 5% CO2. The 96-well black plates used in the experiments were prepared by coating them with 1× poly-D-lysine (A3890401, Thermo-Fisher Scientific Korea, Seoul, South Korea). An aliquot of 40 μL 1× poly-D-lysine was used to treat each of the wells in a flat orientation. After leaving the plates for at least 4 h to absorb the poly-D-lysine, the plates were allowed to dry for at least 6 h. The DMEM used in the culture of HEK293 cells was removed from the dish, followed by application of 3 mL 1× PBS for washing. Removal of 1× PBS was followed by application of 1 mL trypsin/EDTA, and the cells were collected by centrifugation at 1200 rpm for 2 min. The supernatant was removed, and 1 mL fresh DMEM added. The cells were resuspended in media and plates prepared with 4.8 × 10^4 cells/well in 56 μL/well. After 18 h of cell culture in the 96-well black plate, 56 μL of Fluo-4 dye (Fluo-4 Direct^TM Calcium Assay Kit, F10471, Invitrogen, Thermo-Fisher Scientific Korea, Seoul, South Korea) was added to each well, prepared according to the manufacturer’s protocol, and incubated for 50 min~1 h under culturing conditions. Then, 12.4 μL of the appropriate compound solution was added to each well, and the positive control was AF353 (A1612, Sigma Aldrich Korea, Seoul, South Korea) and the negative control was 5% DMSO. Plates were incubated at room temperature and sealed to avoid interference from light for 50 min~1 h. Flexstation 3 and its software provided by Molecular Devices was used for the measurement of fluorescence in real time of treatments using prepared α,β-meATP (M6517, Sigma Aldrich) solution to evoke calcium influx and increased cell membrane potential.
For the analysis of antagonistic activities, all data were calculated by Origin Pro 9.1 software provided by Originlab and the fitting of graphs was proceeded by the growth/sigmoidal and hill1 process within no weights for data selections. For the analysis of the behavioral assessments of pain models, all data are expressed as mean ± SEM. The dose–response data are presented as percentages of the maximum possible effect. Statistical significance was analyzed by independent t-test. The criterion for statistical significance was p < 0.05. The statistical analysis was performed using SPSS 25.0 software (IBM Corp., Armonk, NY, USA).

IC50 (hP2X3R)	also measured	SMILES
4910 ± 821 nM	Metabolic Stability Human (%) [1]: 43.1 ± 4.7%; Metabolic Stability Mouse (%) [2]: 18.4 ± 2.7%; Metabolic Stability Rat (%) [3]: 26.2 ± 3.4%; Decrease of P2X3R antagonistic activity compared with KCB-77033 (hP2X3R): 4–5 fold	Cc1nc2c([nH]1)C(=O)C(Cl)=C(Nc1ccc(F)cc1)C2=O [10a, 6-Chloro-5-((4-fluorophenyl)amino)-2-methyl-1H-benzo[d]imidazole-4,7-dione]
3720 ± 731 nM	Decrease of P2X3R antagonistic activity compared with KCB-77033 (hP2X3R): 4–5 fold	Cc1nc2c([nH]1)C(=O)C(Cl)=C(Nc1ccc(Cl)cc1)C2=O [10b, 6-Chloro-5-((4-chlorophenyl)amino)-2-methyl-1H-benzo[d]imidazole-4,7-dione]
1020 ± 111 nM	Metabolic Stability Human (%) [1]: 81.4 ± 1.9%; Metabolic Stability Mouse (%) [2]: 95.7 ± 17.2%; Metabolic Stability Rat (%) [3]: >99%	O=C1C(Cl)=C(Nc2ccc(F)cc2)C(=O)c2[nH]c(C(F)(F)F)nc21 [11a, 6-Chloro-5-((4-fluorophenyl)amino)-2-(trifluoromethyl)-1H-benzo[d]imidazole-4,7-dione]
825 ± 70 nM	–	O=C1C(Cl)=C(Nc2ccc(Cl)cc2)C(=O)c2[nH]c(C(F)(F)F)nc21 [11b, 6-Chloro-5-((4-chlorophenyl)amino)-2-(trifluoromethyl)-1H-benzo[d]imidazole-4,7-dione]
834 ± 117 nM	–	O=C1C(Nc2ccc(F)c(F)c2)=C(Cl)C(=O)c2[nH]c(C(F)(F)F)nc21 [11c, 6-Chloro-5-((3,4-difluorophenyl)amino)-2-(trifluoromethyl)-1H-benzo[d]imidazole-4,7-dione]
808 ± 75 nM	–	O=C1C(Nc2ccc(Cl)c(Cl)c2)=C(Cl)C(=O)c2[nH]c(C(F)(F)F)nc21 [11d, 6-Chloro-5-((3,4-dichlorophenyl)amino)-2-(trifluoromethyl)-1H-benzo[d]imidazole-4,7-dione]
660 ± 113 nM	–	O=C1C(Nc2ccc(F)cc2Cl)=C(Cl)C(=O)c2[nH]c(C(F)(F)F)nc21 [11e, 6-Chloro-5-((2-chloro-4-fluorophenyl)amino)-2-(trifluoromethyl)-1H-benzo[d]imidazole-4,7-dione]
703 ± 96 nM	–	O=C1C(Nc2ccc(F)c(Cl)c2)=C(Cl)C(=O)c2[nH]c(C(F)(F)F)nc21 [11f, 6-Chloro-5-((3-chloro-4-fluorophenyl)amino)-2-(trifluoromethyl)-1H-benzo[d]imidazole-4,7-dione]
526 ± 141 nM	–	O=C1C(Nc2ccc(Cl)cc2F)=C(Cl)C(=O)c2[nH]c(C(F)(F)F)nc21 [11g, 6-Chloro-5-((4-chloro-2-fluorophenyl)amino)-2-(trifluoromethyl)-1H-benzo[d]imidazole-4,7-dione]
541 ± 103 nM	–	O=C1C(Nc2ccc(Cl)c(F)c2)=C(Cl)C(=O)c2[nH]c(C(F)(F)F)nc21 [11h, 6-Chloro-5-((4-chloro-3-fluorophenyl)amino)-2-(trifluoromethyl)-1H-benzo[d]imidazole-4,7-dione]
1040 ± 221 nM	–	O=C1C(Nc2ccc(F)c(Br)c2)=C(Cl)C(=O)c2[nH]c(C(F)(F)F)nc21 [11i, 5-((3-Bromo-4-fluorophenyl)amino)-6-chloro-2-(trifluoromethyl)-1H-benzo[d]imidazole-4,7-dione]
782 ± 139 nM	–	O=C1C(Nc2ccc(Br)c(F)c2)=C(Cl)C(=O)c2[nH]c(C(F)(F)F)nc21 [11j, 5-((4-Bromo-3-fluorophenyl)amino)-6-chloro-2-(trifluoromethyl)-1H-benzo[d]imidazole-4,7-dione]
774 ± 166 nM	–	O=C1C(Nc2ccc(Cl)cc2I)=C(Cl)C(=O)c2[nH]c(C(F)(F)F)nc21 [11k, 6-Chloro-5-((4-chloro-2-iodophenyl)amino)-2-(trifluoromethyl)-1H-benzo[d]imidazole-4,7-dione]
979 ± 104 nM	–	COC(=O)N1CCC(NC2=C(Cl)C(=O)c3[nH]c(C(F)(F)F)nc3C2=O)CC1 [14a, Methyl-4-((6-chloro-4,7-dioxo-2-(trifluoromethyl)-4,7-dihydro-1H-benzo[d]imidazol-5-yl)amino)piperidine-1-carboxylate]
921 ± 117 nM	–	CCC(=O)N1CCC(NC2=C(Cl)C(=O)c3[nH]c(C(F)(F)F)nc3C2=O)CC1 [14b, 6-Chloro-5-((1-propionylpiperidin-4-yl)amino)-2-(trifluoromethyl)-1H-benzo[d]imidazole-4,7-dione]
864 ± 112 nM	–	O=C1C(NC2CCN(C(=O)c3ccccc3)CC2)=C(Cl)C(=O)c2[nH]c(C(F)(F)F)nc21 [14c, 5-((1-Benzoylpiperidin-4-yl)amino)-6-chloro-2-(trifluoromethyl)-1H-benzo[d]imidazole-4,7-dione]
450 ± 59 nM	–	O=C1C(NC2CCN(C(=O)c3ccc(F)cc3)CC2)=C(Cl)C(=O)c2[nH]c(C(F)(F)F)nc21 [14d, 6-Chloro-5-((1-(4-fluorobenzoyl)piperidin-4-yl)amino)-2-(trifluoromethyl)-1H-benzo[d]imidazole-4,7-dione]
481 ± 20 nM	–	O=C1C(NC2CCN(C(=O)c3ccc(Cl)cc3)CC2)=C(Cl)C(=O)c2[nH]c(C(F)(F)F)nc21 [14e, 6-Chloro-5-((1-(4-chlorobenzoyl)piperidin-4-yl)amino)-2-(trifluoromethyl)-1H-benzo[d]imidazole-4,7-dione]
804 ± 91 nM	–	O=C1C(NC2CCN(C(=O)c3ccc(Br)cc3)CC2)=C(Cl)C(=O)c2[nH]c(C(F)(F)F)nc21 [14f, 5-((1-(4-Bromobenzoyl)piperidin-4-yl)amino)-6-chloro-2-(trifluoromethyl)-1H-benzo[d]imidazole-4,7-dione]
577 ± 66 nM	–	O=C1C(NC2CCN(C(=O)c3ccc(Cl)c(Cl)c3)CC2)=C(Cl)C(=O)c2[nH]c(C(F)(F)F)nc21 [14g, 6-Chloro-5-((1-(3,4-dichlorobenzoyl)piperidin-4-yl)amino)-2-(trifluoromethyl)-1H-benzo[d]imidazole-4,7-dione]
505 ± 51 nM	–	O=C1C(NC2CCN(C(=O)c3ccc(F)c(Cl)c3)CC2)=C(Cl)C(=O)c2[nH]c(C(F)(F)F)nc21 [14i, 6-Chloro-5-((1-(3-chloro-4-fluorobenzoyl)piperidin-4-yl)amino)-2-(trifluoromethyl)-1H-benzo[d]imidazole-4,7-dione]
4440 ± 480 nM	–	N#Cc1ccc(C(=O)N2CCC(NC3=C(Cl)C(=O)c4[nH]c(C(F)(F)F)nc4C3=O)CC2)cc1 [14j, 4-(4-((6-Chloro-4,7-dioxo-2-(trifluoromethyl)-4,7-dihydro-1H-benzo[d]imidazol-5-yl)amino)piperidine-1-carbonyl)benzonitrile]
> 10000 nM	–	O=C1C(NC2CCN(C(=O)c3ccc(C(F)(F)F)cc3)CC2)=C(Cl)C(=O)c2[nH]c(C(F)(F)F)nc21 [14k, 6-Chloro-2-(trifluoromethyl)-5-((1-(4-(trifluoromethyl)benzoyl)piperidin-4-yl)amino)-1H-benzo[d]imidazole-4,7-dione]
1030 ± 73 nM	Metabolic Stability Human (%) [1]: 9.0 ± 1.5%; Metabolic Stability Mouse (%) [2]: 5.2 ± 1.6%; Metabolic Stability Rat (%) [3]: 3.4 ± 0.1%	Cc1nc2c([nH]1)C(=O)C(Cl)=C(Nc1ccc(F)c(F)c1)C2=O [KCB-77033]
